From paper PMC8667904, “Searching for drug leads targeted to the hydrophobic cleft of dengue virus capsid protein” (Journal of Enzyme Inhibition and Medicinal Chemistry, 2021)

Target: T1, DENVC (dengue virus capsid protein) (Dengue virus 2 Thailand/NGS-C/1944, UniProt P14340)
T1 construct: mature capsid protein C from the N-terminus of the dengue virus genome polyprotein; pET3a, E. coli BL21(DE3)pLysS, heparin column; symmetric homodimer; printed residues reach R100
Test: intrinsic tryptophan fluorescence titration, shift of emission maximum
Assay type: binding

T1 sequence (P14340 1-100): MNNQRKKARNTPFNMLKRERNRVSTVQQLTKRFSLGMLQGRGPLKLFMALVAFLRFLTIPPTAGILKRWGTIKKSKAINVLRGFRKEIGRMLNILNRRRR

## O/N=C/c1cc(Cl)ccc1O [compound 12, 2-hydroxy-5-chloro-benzyloxime]
  Kd: 23 ± 8 µM

## N=C(N)NN=Cc1cc(Cl)ccc1O [compound 1, 5-chloro-salicylaldehyde-guanylhydrazone]
  Kd: 18 ± 4 µM

## N=C(N)N/N=C/c1ccc(Br)s1 [compound 4, 5-bromo-thiophene-2-guanylhydrazone]
  Kd: 20 ± 7 µM
